*1 amine or outer side, *2 acyl side, *3 side chain or, on linkers, in order; H or OH if unused. Where a SMILES comes first, the peptide text is derived from it. Bridges are numbered along the chain shown (N, C = ends). [ ]: non-standard residue; d: D form. The star is where a group is joined. 5FAM = O=C1OC2(c3ccc(O)cc3Oc3cc(O)ccc32)c2ccc(C(=O)*)cc21; Maleimide(3,4-diyl) = O=C1NC(=O)C([*:2])=C1[*:1]; Nle = CCCC[C@H](N)C(=O)O; Ahx = NCCCCCC(=O)O Bounds are passed on as bounds.

The target in assay [1] is T1, MCL-1 (Homo sapiens, UniProt Q07820). The assay can be described thus: biochemical.
Assay [2] has as its target T2, BCL-xL (Homo sapiens, UniProt Q07817, DEL27-82).
T2 construct: BCL-2, 1-209; His-SUMO (N, cleaved yes); made in house; host or cells: E. coli BL21
The assay can be described thus: Direct FA titration of FAM-labelled tracer with BCL-xL. Type of assay: binding. To be noted: FAM-Ahx-Beclin-1 150 nM, BCL-xL 6 nM-125 μM, 25 mM Tris, 150 mM NaCl, pH 7.4, 20 °C.

The target in assay [3] is T1, MCL-1. The settings on record: IC50 HRK/MCL-1 divided by IC50 HRK/BCL-xL.

T1 sequence (Q07820 172-327): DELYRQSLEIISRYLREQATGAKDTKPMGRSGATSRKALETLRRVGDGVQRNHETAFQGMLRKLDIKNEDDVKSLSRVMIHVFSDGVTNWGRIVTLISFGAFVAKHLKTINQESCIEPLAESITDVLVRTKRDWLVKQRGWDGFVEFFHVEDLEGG
T2 sequence (Q07817 with tags, fused parts or gaps DEL27-82): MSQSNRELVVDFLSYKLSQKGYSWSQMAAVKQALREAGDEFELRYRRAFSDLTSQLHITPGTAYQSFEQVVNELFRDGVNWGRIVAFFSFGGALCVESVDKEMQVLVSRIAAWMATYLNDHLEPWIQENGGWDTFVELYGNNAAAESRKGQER

On to `CSCC[C@H](NC(=O)[C@H](CCCNC(=N)N)NC(=O)[C@H](CCCNC(=N)N)NC(=O)[C@H](CC(C)C)NC(=O)[C@H](CCC(=O)O)NC(=O)[C@H](CCCNC(=N)N)NC(=O)CNC(=O)[C@H](Cc1ccc(O)cc1)NC(=O)[C@H](CCCNC(=N)N)NC(=O)[C@H](CCC(N)=O)NC(=O)[C@H](C)NC(=O)[C@H](C)NC(=O)[C@H](Cc1c[nH]c2ccccc12)NC(=O)[C@H](CC(C)C)NC(=O)[C@H](CC(N)=O)NC(C)=O)C(=O)N[C@@H](CO)C(=O)N[C@@H](CC(=O)O)C(=O)N[C@@H](CCC(=O)O)C(=O)N[C@@H](Cc1ccccc1)C(=O)N[C@H](C(=O)N[C@@H](CC(=O)O)C(=O)N[C@@H](CO)C(=O)N[C@@H](Cc1ccccc1)C(=O)N[C@@H](CCCCN)C(=O)N[C@@H](CCCCN)C(N)=O)C(C)C` [BAD-wt, reference compound], for which the IC50 (usually the midpoint of a concentration-inhibition curve) in assay [1] is above 50 µM.
As for `CC[C@H](C)[C@H](NC(=O)[C@H](CC(=O)O)NC(=O)[C@H](Cc1ccccc1)NC(=O)[C@H](CC(C)C)NC(=O)[C@H](CC(=O)O)NC(=O)CNC(=O)[C@@H](NC(=O)[C@@H](NC(=O)[C@H](CCCCN)NC(=O)[C@H](CC(C)C)NC(=O)[C@H](CCCNC(=N)N)NC(=O)[C@H](CCCNC(=N)N)NC(=O)[C@H](CO)NC(=O)[C@H](CC(C)C)NC(=O)[C@H](CC(N)=O)NC(=O)[C@H](CCC(=O)O)NC(=O)[C@H](CCSC)NC(=O)[C@@H](NC(=O)CCCCCNC(=O)c1ccc2c(c1)C(=O)OC21c2ccc(O)cc2Oc2cc(O)ccc21)[C@@H](C)O)C(C)C)[C@@H](C)O)C(=O)N[C@@H](CCSC)C(=O)N[C@@H](CO)C(N)=O` [FAM-Ahx-Beclin-1] ({5FAM-Ahx}-TMENLSRRLKVTGDLFDIMS-NH2), binding in assay [2] was characterised by a dissociation constant (Kd) of 9.7 ± 2.3 µM.
For `CCCC[C@H](NC(=O)[C@H](C)NC(=O)[C@H](CCCCN)NC(=O)[C@H](CC(C)C)NC(=O)[C@H](CCCNC(=N)N)NC(=O)[C@H](C)NC(=O)[C@H](C)NC(=O)[C@H](Cc1ccc(O)cc1)NC(=O)[C@H](CC(C)C)NC(=O)[C@H](CCC(N)=O)NC(=O)[C@H](C)NC(=O)[C@H](C)NC(=O)[C@H](CO)NC(C)=O)C(=O)NCC(=O)N[C@@H](CC(=O)O)C(=O)N[C@@H](CCC(=O)O)C(=O)N[C@@H](Cc1ccccc1)C(=O)N[C@@H](Cc1c[nH]cn1)C(=O)N[C@@H](CCC(N)=O)C(N)=O` [HRK-3] (Ac-SAAQLYAARLKA[Nle]GDEFHQ-NH2), in assay [1], the IC50 was above 50 µM.
For the molecule `CC(=O)N[C@@H](CO)C(=O)N[C@@H](C)C(=O)N[C@@H](C)C(=O)N[C@@H](CCC(N)=O)C(=O)N[C@@H](CC(C)C)C(=O)N[C@@H](Cc1ccc(O)cc1)C(=O)N[C@@H](C)C(=O)N[C@@H](CS)C(=O)N[C@@H](CCCNC(=N)N)C(=O)N[C@@H](CC(C)C)C(=O)N[C@@H](CCCCN)C(=O)N[C@@H](CS)C(=O)N[C@@H](Cc1ccccc1)C(=O)NCC(=O)N[C@@H](CC(=O)O)C(=O)N[C@@H](CCC(=O)O)C(=O)N[C@@H](Cc1ccccc1)C(=O)N[C@@H](Cc1c[nH]cn1)C(=O)N[C@@H](CCC(N)=O)C(N)=O` [HRKC4H] (Ac-SAAQLYACRLKCFGDEFHQ-NH2), the “IC50 ratio MCL-1 : BCL-xL (selectivity index)” value in assay [3] is above 2.5. For the same molecule, the IC50 in assay [1] was above 50 µM.
`CSCC[C@H](NC(=O)[C@@H](NC(=O)[C@H](CCCNC(=N)N)NC(=O)[C@H](CCC(N)=O)NC(=O)[C@H](Cc1c[nH]cn1)NC(=O)[C@H](CC(C)C)NC(=O)[C@H](CCC(=O)O)NC(=O)[C@H](CC(=O)O)NC(=O)CNC(=O)[C@H](CC(C)C)NC(=O)[C@H](CS)NC(=O)[C@H](CCCCN)NC(=O)[C@H](CC(C)C)NC(=O)[C@H](CCCNC(=N)N)NC(=O)[C@H](CS)NC(=O)[C@H](C)NC(=O)[C@@H](NC(=O)[C@H](CC(C)C)NC(=O)[C@H](CCC(N)=O)NC(=O)[C@H](C)NC(=O)[C@H](C)NC(=O)[C@H](CO)NC(C)=O)[C@@H](C)O)[C@@H](C)O)C(=O)N[C@@H](Cc1c[nH]c2ccccc12)C(N)=O` [HRKC4] (Ac-SAAQLTACRLKCLGDELHQRTMW-NH2) yielded an IC50 in assay [1] of 3.9 ± 0.2 µM.
Consider `CC(=O)N[C@@H](CO)C(=O)N[C@@H](C)C(=O)N[C@@H](C)C(=O)N[C@@H](CCC(N)=O)C(=O)N[C@@H](CC(C)C)C(=O)N[C@@H](Cc1ccc(O)cc1)C(=O)N[C@@H](C)C(=O)N[C@H]1CSC2=C(SC[C@@H](C(=O)N[C@@H](Cc3ccccc3)C(=O)NCC(=O)N[C@@H](CC(=O)O)C(=O)N[C@@H](CCC(=O)O)C(=O)N[C@@H](Cc3ccccc3)C(=O)N[C@@H](Cc3c[nH]cn3)C(=O)N[C@@H](CCC(N)=O)C(N)=O)NC(=O)[C@H](CCCCN)NC(=O)[C@H](CC(C)C)NC(=O)[C@H](CCCNC(=N)N)NC1=O)C(=O)NC2=O` [HRKS4H] (Ac-SAAQLYACRLKCFGDEFHQ-NH2; linker 8-12 via Maleimide(3,4-diyl)), for which the “IC50 ratio MCL-1 : BCL-xL (selectivity index)” value in assay [3] is given as above 5.9. For the same molecule, in assay [1], the IC50 was above 50 µM.
In the case of “Ac-RYGRELRRMSDEFVDSFKK-NH2 [BAD-s, reference compound]”, the IC50 in assay [1] is above 50 µM.
In the case of Ac-SAAQLLAARLKAFGDEFHQ-NH2 [HRK-5], the “IC50 ratio MCL-1 : BCL-xL (selectivity index)” value in assay [3] amounted to 16.0. In assay [1], this molecule yielded an IC50 of 16 ± 4.4 µM.
Ac-SAAQLLAARLKALGDELHQ-NH2 [HRK-4]: the “IC50 ratio MCL-1 : BCL-xL (selectivity index)” value in assay [3] is reported as 2.5. Further, the IC50 in assay [1] was found to be 3.5 ± 1.2 µM.
As to Ac-SAAQLTAARLKALGDELHQ-NH2 [HRK-s], the “IC50 ratio MCL-1 : BCL-xL (selectivity index)” value in assay [3] is above 2.3. In assay [1], this molecule gave an IC50 above 50 µM.
Consider Ac-SAAQLYAARLKAFGDEFHQ-NH2 [HRK-hybrid], for which the “IC50 ratio MCL-1 : BCL-xL (selectivity index)” value in assay [3] was above 55.5. In addition, in assay [1], the IC50 is above 50 µM.
Ac-SAAQLYAARLKALGDEFHQ-NH2 [HRK-2]: the “IC50 ratio MCL-1 : BCL-xL (selectivity index)” value in assay [3] is above 45.4. In assay [1], this molecule gave an IC50 above 50 µM.
In the case of Ac-SAAQLYAARLKALGDELHQ-NH2 [HRK-1], the “IC50 ratio MCL-1 : BCL-xL (selectivity index)” value in assay [3] was above 5.8. Besides, in assay [1], the IC50 was above 50 µM.

For the origin of these results see publication PMC9904277, “Rational design of Harakiri (HRK)-derived constrained peptides as BCL-xL inhibitors” (Chemical Communications (Cambridge, England), 2023).
